Molecules are shown by their SMILES. pEC50: −log10 of the molar value. A value given as a limit tells only on which side of the number the result lay.

The values that follow come from patent US11866450B2, “Modulators of Cystic Fibrosis Transmembrane Conductance regulator, pharmaceutical compositions, methods of treatment, and process for making the modulators” (priority 2018, dated 2024).

This assay concerns the target CFTR-mediated chloride transport (Homo sapiens, UniProt P13569). The assay is classed as cell-based. As to conditions: enteroid cells incubated with test compound 18-24 hours, acute 10 μM forskolin and 300 nM Compound III; for Max. Activity: % of chloride transport with 3 μM Compound A, 3 μM Compound II and 300 nM acute Compound III triple combination control. The method in brief: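 Membrane-potential fluorescence AUC over 15 min quantified CFTR chloride transport after acute forskolin (10 μM), IBMX (100 μM) and Compound III (300 nM) in chloride-free buffer. Human enteroid cells were pretreated with compound for 18–24 h; % Activity is relative to 3 μM Compound A + 3 μM Compound II + 300 nM Compound III.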

Chain of CFTR-mediated chloride transport (P13569 whole entry, looked up): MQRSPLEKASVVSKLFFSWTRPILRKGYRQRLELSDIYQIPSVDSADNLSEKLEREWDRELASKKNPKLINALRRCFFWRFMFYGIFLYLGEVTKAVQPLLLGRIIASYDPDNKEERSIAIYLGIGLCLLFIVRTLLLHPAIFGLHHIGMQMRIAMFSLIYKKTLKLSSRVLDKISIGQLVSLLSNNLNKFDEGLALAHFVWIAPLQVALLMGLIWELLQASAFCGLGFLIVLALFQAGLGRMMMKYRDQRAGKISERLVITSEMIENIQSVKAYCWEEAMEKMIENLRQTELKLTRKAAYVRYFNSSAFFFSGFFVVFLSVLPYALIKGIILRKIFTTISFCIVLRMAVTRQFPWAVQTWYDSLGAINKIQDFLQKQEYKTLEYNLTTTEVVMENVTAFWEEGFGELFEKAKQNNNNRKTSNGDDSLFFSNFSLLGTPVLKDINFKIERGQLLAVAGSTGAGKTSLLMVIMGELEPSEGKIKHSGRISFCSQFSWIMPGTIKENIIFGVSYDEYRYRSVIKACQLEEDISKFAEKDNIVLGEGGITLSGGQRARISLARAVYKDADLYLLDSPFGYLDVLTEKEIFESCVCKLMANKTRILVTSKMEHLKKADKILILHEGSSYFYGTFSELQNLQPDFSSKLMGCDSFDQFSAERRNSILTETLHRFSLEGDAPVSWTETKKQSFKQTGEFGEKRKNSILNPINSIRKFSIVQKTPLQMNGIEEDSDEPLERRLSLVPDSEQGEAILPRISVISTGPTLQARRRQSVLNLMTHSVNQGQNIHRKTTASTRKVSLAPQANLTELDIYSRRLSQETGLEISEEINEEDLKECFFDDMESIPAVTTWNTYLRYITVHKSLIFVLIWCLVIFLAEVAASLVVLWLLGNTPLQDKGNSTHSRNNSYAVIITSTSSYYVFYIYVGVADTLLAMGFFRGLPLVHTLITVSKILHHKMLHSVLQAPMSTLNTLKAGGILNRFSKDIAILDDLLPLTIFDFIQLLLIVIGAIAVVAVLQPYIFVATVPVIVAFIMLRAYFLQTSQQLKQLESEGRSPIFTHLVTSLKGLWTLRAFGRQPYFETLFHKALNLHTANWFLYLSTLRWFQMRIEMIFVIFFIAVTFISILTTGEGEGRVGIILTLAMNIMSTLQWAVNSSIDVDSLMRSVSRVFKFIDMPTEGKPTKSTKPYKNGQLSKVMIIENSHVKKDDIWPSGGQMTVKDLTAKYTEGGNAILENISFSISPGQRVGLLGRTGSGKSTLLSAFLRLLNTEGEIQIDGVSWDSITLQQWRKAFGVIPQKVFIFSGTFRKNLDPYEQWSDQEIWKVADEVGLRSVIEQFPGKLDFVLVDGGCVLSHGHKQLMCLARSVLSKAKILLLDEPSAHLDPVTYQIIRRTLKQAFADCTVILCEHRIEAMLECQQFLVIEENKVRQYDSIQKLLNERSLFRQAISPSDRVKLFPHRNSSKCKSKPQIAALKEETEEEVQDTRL

As for `CC1(C)C[C@@H]2CCCNc3cccc(n3)S(=O)(=O)NC(=O)c3ccc(N4CCN(CCC56CC7CC(CC(C7)C5)C6)C4=O)nc3N1C2` [Compound 228, (14S)-8-{3-[2-(Adamantan-1-yl)ethyl]-2-oxoimidazolidin-1-yl}-12,12-dimethyl-2λ^6-thia-3,9,11,18,23-pentaazatetracyclo[17.3.1.111,14.05,10]tetracosa-1(22),5,7,9,19(23),20-hexaene-2,2,4-trione], the pEC50 (as a rule, the negative decadic logarithm of the EC50, by convention in mol/L) was over 6.00 and the “Max. Activity” value was “++ (++ is 30-60%)”.
On to `CC1(C)C[C@@H]2CCCNc3cccc(n3)S(=O)(=O)NC(=O)c3ccc(N4CCN(CC56CC7CC(CC(C7)C5)C6)C4=O)nc3N1C2` [Compound 229, (14S)-8-{3-[(adamantan-1-yl)methyl]-2-oxoimidazolidin-1-yl}-12,12-dimethyl-2λ^6-thia-3,9,11,18,23-pentaazatetracyclo[17.3.1.111,14.05,10]tetracosa-1(22),5,7,9,19(23),20-hexaene-2,2,4-trione], for which the pEC50 was over 6.00 and the “Max. Activity” value was “++ (++ is 30-60%)”.
For `CC1(C)C[C@@H]2CCCNc3cccc(n3)S(=O)(=O)NC(=O)c3ccc(N4CCN(C56CC7CC(CC(C7)C5)C6)C4=O)nc3N1C2` [Compound 230, (14S)-8-[3-(Adamantan-1-yl)-2-oxoimidazolidin-1-yl]-12,12-dimethyl-2λ^6-thia-3,9,11,18,23-pentaazatetracyclo[17.3.1.111,14.05,10]tetracosa-1(22),5,7,9,19(23),20-hexaene-2,2,4-trione], in that order: over 6.00 and “+ (+ is <30%)”.
On to `CC(C)(C)CCN1CCN(c2ccc3c(n2)N2C(CCCNc4cccc(n4)S(=O)(=O)NC3=O)CCC2(C)C)C1=O` (centres unmarked) [Compound 232, 8-[3-(3,3-dimethylbutyl)-2-oxoimidazolidin-1-yl]-12,12-dimethyl-2λ^6-thia-3,9,11,19,24-pentaazatetracyclo[18.3.1.05,10.011,15]tetracosa-1(23),5,7,9,20(24),21-hexaene-2,2,4-trione], for which the pEC50 is under 5.52 and the “Max. Activity” value is reported as “+ (+ is <30%)”.
The matching figures for `CC1(C)C[C@@H]2CCCNc3cccc(n3)S(=O)(=O)NC(=O)c3ccc(N4CCC(OCCC(C)(C)C(F)(F)F)C4=O)nc3N1C2` (stereo partly drawn) [Compound 237, (14S)-12,12-dimethyl-8-[2-oxo-3-(4,4,4-trifluoro-3,3-dimethylbutoxy)pyrrolidin-1-yl]-2λ^6-thia-3,9,11,18,23-pentaazatetracyclo[17.3.1.111,14.05,10]tetracosa-1(22),5,7,9,19(23),20-hexaene-2,2,4-trione]: over 6.00 and “+++ (+++ is >60%)”.
As to `CC1(C)C[C@@H]2CCCNc3nc(ccc3O)S(=O)(=O)NC(=O)c3ccc(-n4ccc(OCCC5C6(CC6)C56CC6)n4)nc3N1C2` [Compound 254, (14S)-8-[3-(2-{dispiro[2.0.2.1]heptan-7-yl}ethoxy)-1H-pyrazol-1-yl]-20-hydroxy-12,12-dimethyl-2λ^6-thia-3,9,11,18,23-pentaazatetracyclo[17.3.1.111,14.05,10]tetracosa-1(23),5,7,9,19,21-hexaene-2,2,4-trione], the negative-log EC50 (pEC50) was over 6.00 and the “Max. Activity” value is on record as “++ (++ is 30-60%)”.
With `CC1(C)C[C@@H]2CCCNc3nc(ccc3O)S(=O)(=O)NC(=O)c3ccc(-n4ccc(OCCCC5(C(F)(F)F)CC5)n4)nc3N1C2` [Compound 255, (14S)-20-hydroxy-12,12-dimethyl-8-(3-{3-[1-(trifluoromethyl)cyclopropyl]propoxy}-1H-pyrazol-1-yl)-2λ^6-thia-3,9,11,18,23-pentaazatetracyclo[17.3.1.111,14.05,10]tetracosa-1(22),5,7,9,19(23),20-hexaene-2,2,4-trione], the pEC50 is over 6.00 and the “Max. Activity” value is on record as “++ (++ is 30-60%)”.
In the case of `CC1(C)C[C@@H]2CCCNc3cccc(n3)S(=O)(=O)NC(=O)c3ccc(-n4ccc(OCC(O)C5C6(CC6)C56CC6)n4)nc3N1C2` (stereo partly drawn) [Compound 257, (14S)-8-[3-(2-{dispiro[2.0.2.1]heptan-7-yl}-2-hydroxyethoxy)-1H-pyrazol-1-yl]-12,12-dimethyl-2λ^6-thia-3,9,11,18,23-pentaazatetracyclo[17.3.1.111,14.05,10]tetracosa-1(22),5,7,9,19(23),20-hexaene-2,2,4-trione], the negative logarithm of the EC50 (pEC50) was over 6.00 and the “Max. Activity” value is listed as “+++ (+++ is >60%)”.
For `CC1(C)C[C@@H]2CCCNc3cccc(n3)S(=O)(=O)NC(=O)c3ccc(-n4ccc(OCC(=O)C5C6(CC6)C56CC6)n4)nc3N1C2` [Compound 258, (14S)-8-[3-(2-{Dispiro[2.0.2.1]heptan-7-yl}-2-oxoethoxy)-1H-pyrazol-1-yl]-12,12-dimethyl-2λ^6-thia-3,9,11,18,23-pentaazatetracyclo[17.3.1.111,14.05,10]tetracosa-1(22),5,7,9,19(23),20-hexaene-2,2,4-trione], in that order: over 6.00 and “+++ (+++ is >60%)”.
The matching figures for `CC1(C)C[C@@H]2CCCNc3ccc(O)c(n3)S(=O)(=O)NC(=O)c3ccc(-n4ccc(OCCC5C6(CC6)C56CC6)n4)nc3N1C2` [Compound 260, (14S)-8-[3-(2-{dispiro[2.0.2.1]heptan-7-yl}ethoxy)-1H-pyrazol-1-yl]-22-hydroxy-12,12-dimethyl-2λ^6-thia-3,9,11,18,23-pentaazatetracyclo[17.3.1.111,14.05,10]tetracosa-1(22),5,7,9,19(23),20-hexaene-2,2,4-trione]: over 6.00 and “+++ (+++ is >60%)”.
For `CC1(C)C[C@@H]2CCCNc3ccc(O)c(n3)S(=O)(=O)NC(=O)c3ccc(-n4ccc(OCCCC5(C(F)(F)F)CC5)n4)nc3N1C2` [Compound 261, (14S)-22-hydroxy-12,12-dimethyl-8-(3-{3-[1-(trifluoromethyl)cyclopropyl]propoxy}-1H-pyrazol-1-yl)-2λ^6-thia-3,9,11,18,23-pentaazatetracyclo[17.3.1.111,14.05,10]tetracosa-1(22),5,7,9,19(23),20-hexaene-2,2,4-trione], in that order: over 6.00 and “++ (++ is 30-60%)”.
In the case of `CC1(C)CC2CCCNc3cccc(n3)S(=N)(=O)NC(=O)c3ccc(-n4ccc(OCCC5(C(F)(F)F)CC5)n4)nc3N1C2` (centres unmarked) [Compound 262, 2-imino-12,12-dimethyl-8-(3-{2-[1-(trifluoromethyl)cyclopropyl]ethoxy}-1H-pyrazol-1-yl)-2λ^6-thia-3,9,11,18,23-pentaazatetracyclo[17.3.1.111,14.05,10]tetracosa-1(23),5,7,9,19,21-hexaene-2,4-dione], the pEC50 is over 6.00 and the “Max. Activity” value is listed as “+++ (+++ is >60%)”.
For `CC1(C)CC2CCCNc3cccc(n3)S(=N)(=O)NC(=O)c3ccc(-n4ccc(OCCC5(C(F)(F)F)CC5)n4)nc3N1C2` (centres unmarked) [Compound 263, 2-imino-12,12-dimethyl-8-(3-{2-[1-(trifluoromethyl)cyclopropyl]ethoxy}-1H-pyrazol-1-yl)-2λ^6-thia-3,9,11,18,23-pentaazatetracyclo[17.3.1.111,14.05,10]tetracosa-1(23),5,7,9,19,21-hexaene-2,4-dione], in that order: over 6.00 and “++ (++ is 30-60%)”.
